The text below walks through data of US20060014949A1 (SuperGen Inc., priority 2004, published 2006).

One may read the solubility as how much of the substance goes into solution per volume.

≈ marks a conversion by molar mass, not a printed value. Some results are limits rather than exact numbers.

Data set [1] can be described thus: Approximate solubility by solvent aliquot addition, visual inspection. The format is physicochemical. The note with it: thermodynamic from solid. How it is done:
Solvents were either reagent or HPLC grade. The aliquots were typically either 100 μL or 1 mL. Between additions, the mixture was typically shaken or sonicated. Whether the solids dissolved was judged by visual inspection. Solubilities were estimated from these experiments based on the total solvent used to provide complete dissolution.
Solubilities were estimated from these experiments based on the total solvent used to give a solution. Duplicate runs were averaged.

Data set [2] is described as follows: Solid-state stress (compression, heating, grinding, storage) with XRPD form check. The format is physicochemical. The note with it: no solvent; Hydraulic Press 10,000 lbs ~3 min. How it is done: X-ray powder diffraction analyses were carried out on a Shimadzu XRD-6000 X-ray powder diffractometer using Cu Kα radiation having a wavelength of 1.5406 Å. The instrument is equipped with a fine-focus X-ray tube. The tube power was set by setting potential difference at 40 kV, and current 40 mA. The divergence and scattering slits were set at 1° and the receiving slit was set at 0.15 mm. Diffracted radiation was detected by a NaI scintillation detector. A theta-two theta continuous scan at 3°/min (0.4 sec/0.02° step) from 2.5 to 40 °2θ was performed. A silicon standard was analyzed each day to check the instrument alignment. Each sample was analyzed in a quartz sample holder. A variable temperature (VT-XRPD) experiment was performed on one form. The sample was prepared for analysis by pressing it into a variable temperature holder.

Turning to `Nc1ncn([C@H]2C[C@H](O)[C@@H](CO)O2)c(=O)n1` [Decitabine, 5-aza-2′-deoxycytidine], the solubility in data set [1] (1,1,1,3,3,3-hexafluoro-2-propanol, organic solvent or mixture, solvent 1,1,1,3,3,3-Hexafluoro-2-propanol) is approximately 18000 µg/mL (≈ 78.9 mM); in data set [1] (1,1,1-trichloroethane, organic solvent or mixture, solvent 1,1,1-Trichloroethane), less than 1000 µg/mL; in data set [1] (1,4-dioxane, organic solvent or mixture, solvent 1,4-Dioxane), less than 2000 µg/mL; in data set [1] (2-butanone, organic solvent or mixture, solvent 2-Butanone), less than 1000 µg/mL; in data set [1] (2-propanol, organic solvent or mixture, solvent 2-Propanol) it was less than 1000 µg/mL; in data set [1] (acetone, organic solvent or mixture, solvent Acetone), less than 1000 µg/mL. The solubility in data set [1] (acetonitrile, organic solvent or mixture, solvent Acetonitrile) is less than 1000 µg/mL; in data set [1] (chloroform, organic solvent or mixture, solvent Chloroform), less than 1000 µg/mL; in data set [1] (dichloromethane, organic solvent or mixture, solvent Dichloromethane) it was less than 1000 µg/mL; in data set [1] (dichloromethane:ethanol (1:1), organic solvent or mixture, solvent Dichloromethane:Ethanol (1:1)) it was less than 1000 µg/mL; in data set [1] (dichloromethane:methanol (1:1), organic solvent or mixture, solvent Dichloromethane:Methanol (1:1)), more than 1000 µg/mL; in data set [1] (diethylamine, organic solvent or mixture, solvent Diethylamine), less than 1000 µg/mL. Further, the solubility in data set [1] (ethyl acetate, organic solvent or mixture, solvent Ethyl Acetate) is less than 1000 µg/mL; in data set [1] (ethyl ether, organic solvent or mixture, solvent Ethyl Ether), less than 1000 µg/mL; in data set [1] (hexanes, organic solvent or mixture, solvent Hexanes), less than 1000 µg/mL; in data set [1] (methanol:2,2,2-trifluoroethanol (1:1), organic solvent or mixture, solvent Methanol:2,2,2-Trifluoroethanol (1:1)) it was more than 1000 µg/mL; in data set [1] (methanol:water (1:1), aqueous with cosolvent or surfactant or cyclodextrin, solvent Methanol:Water (1:1)) it was 4000 µg/mL (≈ 17.5 mM); in data set [1] (methyl sulfide, organic solvent or mixture, solvent Methyl Sulfide), less than 1000 µg/mL. The solubility in data set [1] (methyl sulfoxide, organic solvent or mixture, solvent Methyl Sulfoxide) is approximately 37000 µg/mL (≈ 162 mM); in data set [1] (nitromethane, organic solvent or mixture, solvent Nitromethane), less than 1000 µg/mL; in data set [1] (tetrahydrofuran, organic solvent or mixture, solvent Tetrahydrofuran), less than 1000 µg/mL; in data set [1] (toluene, organic solvent or mixture, solvent Toluene) it was less than 1000 µg/mL; in data set [1] (water, solvent Water), approximately 8000 µg/mL (≈ 35.1 mM). In data set [2], the “XRPD Pattern” value was “A + 1 peak”.
